The source of these data is patent US10806744B2, “Edible composition” (Conopco, Inc., priority 2015, dated 2020).

“And” between values parts separate entries of the source, which are not always exact repeats. Equal entries are not always repeated.

The subject of assay [1] is glucose transport across differentiated Caco-2 cell monolayers. Briefly: Glucose transport cell model: 5 mM D-glucose 15 minutes, then 25 mM for 45 minutes, cumulative glucose transport. The assay is classed as cell-based, human. Also noted: unit not given here. The settings on record: duplicate. The procedure:
Caco-2 cells were cultured and routinely passaged as described in Example 1.
After the last incubation, all of the retained PBS(+) from each step (i.e. at 15, 30, 45 and 60 minutes) was assayed for glucose levels as described in Example 1, and the total cumulative glucose transport calculated. The localised changes in luminal glucose concentrations described and illustrated in example 1 are mimicked in-vitro through an initial short incubation of differentiated Caco-2 cells with a low level of D-glucose (5 mM for 15 minutes) immediately followed by a sustained incubation with a high level of D-glucose (final concentration of 25 mM for 45 minutes).
In the above table, every test pairing of a homisoflavonoid (HIF) and a flavonoid monoglucoside (FM) has 5 values reported: • 1. No Compound (NC)+NC • 2.
Synergy is achieved when the inhibition caused by the combination of HIF and FM is greater than the sum of the inhibition due to HIF alone added to the inhibition due to FM alone.

The target in assay [2] is T1, SGLT1 (Homo sapiens, UniProt P13866).
T1 sequence (P13866 1-664): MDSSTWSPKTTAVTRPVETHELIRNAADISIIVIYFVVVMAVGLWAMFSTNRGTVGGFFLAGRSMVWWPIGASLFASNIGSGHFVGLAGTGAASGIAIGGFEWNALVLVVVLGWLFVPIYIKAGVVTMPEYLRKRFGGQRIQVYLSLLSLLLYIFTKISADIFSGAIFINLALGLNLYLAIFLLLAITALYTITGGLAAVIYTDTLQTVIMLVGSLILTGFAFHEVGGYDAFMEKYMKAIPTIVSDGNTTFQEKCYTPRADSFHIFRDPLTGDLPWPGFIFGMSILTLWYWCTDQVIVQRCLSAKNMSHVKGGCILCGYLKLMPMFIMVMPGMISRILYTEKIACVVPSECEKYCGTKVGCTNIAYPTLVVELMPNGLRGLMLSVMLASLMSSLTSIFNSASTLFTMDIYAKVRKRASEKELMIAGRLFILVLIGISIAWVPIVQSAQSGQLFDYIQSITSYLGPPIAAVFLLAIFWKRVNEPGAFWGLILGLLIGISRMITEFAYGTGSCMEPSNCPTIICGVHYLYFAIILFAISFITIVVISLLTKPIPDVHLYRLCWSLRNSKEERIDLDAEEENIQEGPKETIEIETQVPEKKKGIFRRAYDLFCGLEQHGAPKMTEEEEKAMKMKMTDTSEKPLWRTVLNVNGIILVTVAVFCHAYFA
The settings on record: as disclosed in Table 1 of WO 2014/086632; cited from earlier work.

Another assay deals with SGLT1 and GLUT2. Kind of assay: Assigned class of transporter inhibited, from Caco-2 screening at 5 mM and 25 mM D-glucose. The settings on record: from % inhibition at 5 mM and 25 mM D-glucose; compound 300 μM. The class given is cell-based, human.
In assay [3] the target is T1, SGLT1. Kind of assay: Glucose transport inhibitor cell screening assay, 5 mM D-glucose for 15 minutes.
Description: Human epithelial colorectal adenocarcinoma (Caco-2) cells were obtained from the American Type Culture Collection (ATCC) and cultured in Growth Medium consisting of Dulbecco's modified Eagle's medium (containing Glutamax-1, 4.5 g/L D-glucose and 25 mM 4-(2-hydroxyethyl)-1-piperazine ethanesulphonic acid (Hepes) (Invitrogen)), 10% foetal bovine serum (Sigma), 1% non-essential amino acids (Invitrogen) and 1 mM sodium pyruvate (Sigma)). The cells were routinely passaged at approximately 80% confluence using TrypLE™ Express Stable Trypsin-Like Enzyme (Invitrogen) to detach the cells, and seeded at approximately 114 cells per mm^2 in fresh tissue culture flasks. Only cells between the passage numbers 45 and 49 were used for experiments.
Corning® HTS Transwell® 96 well permeable insert supports (Sigma) were collagen coated with 40 μl of 50 μg/ml rat tail collagen type I (BD Biosciences) in 0.02 M acetic acid for one hour at room temperature under sterile conditions. The inserts were washed twice in phosphate buffered saline (PBS (Invitrogen)) and the Caco-2 cells seeded into the inserts at 1.0×10^6 cell/ml (75 μl per insert) in Growth Medium and 30 ml of Growth Medium added to the feeder plate below. The cells were left to attach to the collagen matrix and form monolayers over 48 hours at 37° C., 5% CO2. Both inserts and feeder plate were washed in PBS and the cells incubated with BD Entero-STIM™ Enterocyte Differentiation Medium containing MITO+™ Serum Extender solution (both BD Biosciences), 75 μl per insert and 30 ml in the feeder plate, for a further 48 hours at 37° C., 5% CO2.
Differentiated cell monolayers were washed gently in Dulbecco's Phosphate Buffered Saline containing CaCl2 and MgCl2 (PBS(+) (Invitrogen)) and the inserts transferred to a new Corning® HTS Transwell®-96 well receiver plate (Sigma). The cells were incubated with fresh PBS(+) (75 μl per insert and 225 μl per well) for 60 minutes at 37° C., 5% CO2. The PBS(+) was gently aspirated and replaced with 75 μl per insert of either 5 mM D-glucose (Sigma)±test compound or 25 mM D-glucose±test compound in triplicate and 225 μl per well of PBS(+) quickly added to each well. The 5 mM glucose wells and the 25 mM glucose wells were incubated at 37° C., 5% CO2 for 15 minutes and 30 minutes, respectively. […] The cell inserts were transferred to a new receiver plate, the supernatant gently aspirated from the cells and replaced with 100 μl of 100 μM of Lucifer Yellow (Sigma) solution to confirm the integrity of the monolayers. 225 μl of PBS(+) was added to each well and incubated at 37° C., 5% CO2 for 1 hour. The cell inserts were then discarded and the permeability of the membranes to Lucifer Yellow checked by measuring the fluorescence of the samples at 485 nm (excitation) and 530 nm (emission) on a Spectramax Gemini EM fluorescence microplate reader.
The amount of glucose transported across the cell monolayers was measured using a glucose assay based on Invitrogen's Amplex Red Glucose/Glucose oxidase Assay Kit. Briefly, 50 μl of each test sample was transferred to a black sided/clear bottom 96-well plate (Greiner Bio-One) to which 100 μl of reaction buffer (0.5 μl 10 mM Ampliflu Red, 1 μl 10 U/ml Horse Radish peroxidase, 1 μl 100 U/ml glucose oxidase and 97.5 μl PBS (all Sigma)) was added. After 10 minutes incubation at room temperature, the fluorescence of the samples was measured at 530 nm (excitation) and 590 nm (emission) on a Spectramax Gemini EM fluorescence microplate reader and the glucose concentration extrapolated from a standard curve.
At higher D-glucose concentrations, the SGLT1 transporter becomes saturated and consequently the majority of glucose transport across the monolayer is driven by the low affinity, high capacity GLUT2 transporter that is targeted to the apical membrane only following an initial SGLT1-dependent transport of glucose.
The next assay concerns the target T2, GLUT2 (Homo sapiens, UniProt P11168).
T2 sequence (P11168 1-524): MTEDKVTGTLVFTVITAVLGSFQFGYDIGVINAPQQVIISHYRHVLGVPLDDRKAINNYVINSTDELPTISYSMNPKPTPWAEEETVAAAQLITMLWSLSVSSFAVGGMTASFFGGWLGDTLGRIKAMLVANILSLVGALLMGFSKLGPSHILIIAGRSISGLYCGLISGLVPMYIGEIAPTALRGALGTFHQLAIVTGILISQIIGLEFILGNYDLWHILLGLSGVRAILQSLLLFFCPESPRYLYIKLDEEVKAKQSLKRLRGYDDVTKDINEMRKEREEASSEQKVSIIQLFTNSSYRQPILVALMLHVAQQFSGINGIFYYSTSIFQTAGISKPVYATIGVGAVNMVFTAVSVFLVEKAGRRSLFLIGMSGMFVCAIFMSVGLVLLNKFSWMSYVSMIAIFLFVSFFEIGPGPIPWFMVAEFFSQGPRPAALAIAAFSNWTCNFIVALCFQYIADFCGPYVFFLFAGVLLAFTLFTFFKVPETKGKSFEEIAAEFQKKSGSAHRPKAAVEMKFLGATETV
Briefly: Glucose transport inhibitor cell screening assay, 25 mM D-glucose for 30 minutes. The settings on record: for inhibition at 300 µM: Caco-2, read-out: % Glucose transport inhibiton 25 mM.

[4] abbreviates: flavonoid monoglucoside 300 uM alone, added at 5 mM glucose step only (NC at 25 mM).
Where [5] appears, read: flavonoid monoglucoside 300 uM alone, added at 25 mM glucose step only (NC at 5 mM).

For the molecule `O=c1cc(-c2ccc(O)cc2)oc2c([C@@H]3O[C@H](CO)[C@@H](O)[C@H](O)[C@H]3O)c(O)cc(O)c12` [Apigenin-8-C-glucoside], the entries for the “Cumulative (AVE) glucose transport” value in assay [1] (setting [4]) and in assay [1] (setting [5]) were 291.89 and 287.58, respectively. Further, on SGLT1 [2], the SGLT1 inhibitory activity result is reported as “SGLT1 inhibitors”. With `OC[C@H]1O[C@@H](Oc2cc3c(O)cc(O)cc3[o+]c2-c2cc(O)c(O)c(O)c2)[C@H](O)[C@@H](O)[C@@H]1O.[Cl-]` [Delphinidin-3-O-glucoside chloride, delphinidin-3-O-glucoside chloride], in the assay with SGLT1 and GLUT2, the “Class (assigned class of transporter inhibited)” value is “SGLT1”. Also, the “Cumulative (AVE) glucose transport” value in assay [1] (setting [4]) worked out at 220.62; in assay [1] (setting [5]), 227.60. The “identified as inhibitors of SGLT1” value at SGLT1 [3] (Caco-2 cell assay) is on record as “inhibitors of SGLT1”. Further, the “% Glucose transport inhibiton 5 mM” value at SGLT1 [3] (compound 300 μM in DMSO, 5 mM D-glucose, 15 minutes, Caco-2 monolayer, triplicate) is recorded as 41.00 ± 3.60%. Moreover, the “% Glucose transport inhibiton 25 mM” value at GLUT2 (compound 300 μM in DMSO, 25 mM D-glucose, 30 minutes, Caco-2 monolayer, triplicate) was 12.82 ± 1.19%. With `Cc1c(O)cc2c(c1O)C(=O)C(Cc1ccc(O)cc1)CO2` (centres unmarked) [EA1, 5,7-dihydroxy-3-(4′-hydroxybenzyl)-6-methylchroman-4-one], the “Class (assigned class of transporter inhibited)” value with SGLT1 and GLUT2 was “GLUT2 (GLUT2 inhibitors having ≥20% inhibition at both 5 mM and 25 mM D-glucose levels)”. In addition, the “Cumulative (AVE) glucose transport” value was 339.2 in assay [1] (homoisoflavonoid 2.5 uM alone, added at 25 mM glucose step (NC at 5 mM)); 284.6 in assay [1] (homoisoflavonoid 5 uM alone, added at 25 mM glucose step (NC at 5 mM)); 301.50 and 232.03 in assay [1] (homoisoflavonoid 10 uM alone, added at 25 mM glucose step (NC at 5 mM)). Besides, the inhibition at 300 µM on SGLT1 [3] (Caco-2, read-out: % Glucose transport inhibiton 5 mM) was determined as 90.7 ± 1.4%; at GLUT2 it was 66.6 ± 5.21%. In addition, on GLUT2 (Caco-2 cell assay), the “identified as inhibitors of GLUT2” value is listed as “inhibitors of GLUT2”. `O=c1c(O[C@@H]2O[C@H](CO)[C@@H](O)[C@H](O)[C@H]2O)c(-c2ccc(O)cc2)oc2cc(O)cc(O)c12` [Kaempferol-3-glucoside]: the “Cumulative (AVE) glucose transport” value in assay [1] (flavonoid monoglucoside 150 uM alone, added at 5 mM glucose step only (NC at 25 mM)) came out at 297.72; in assay [1] (flavonoid monoglucoside 150 uM alone, added at 25 mM glucose step only (NC at 5 mM)), 290.49. On SGLT1 [2], the SGLT1 inhibitory activity result was “SGLT1 inhibitors”. Take `O=c1cc(-c2ccc(O)c(O)c2)oc2cc(O[C@@H]3O[C@H](CO)[C@@H](O)[C@H](O)[C@H]3O)cc(O)c12` [Luteolin-7-glucoside]: the “Cumulative (AVE) glucose transport” value in assay [1] (flavonoid monoglucoside 300 uM alone, added at 5 mM glucose step only (NC at 25 mM), listed as L7G) is 220.63 and 301.4; in assay [1] (flavonoid monoglucoside 300 uM alone, added at 25 mM glucose step only (NC at 5 mM), listed as L7G), 256.73 and 281.9. Also, on SGLT1 [2], the SGLT1 inhibitory activity entry is “SGLT1 inhibitors”. `O=C1CC(c2ccc(O)cc2)Oc2cc(O[C@@H]3O[C@H](CO)[C@@H](O)[C@H](O)[C@H]3O)cc(O)c21` (some centres unmarked) [Naringenin-7-O-glucoside]: the “Cumulative (AVE) glucose transport” value in assay [1] (setting [4]) was 215.32; in assay [1] (setting [5]), 236.65. Further, the SGLT1 inhibitory activity result on SGLT1 [2] is on record as “SGLT1 inhibitors”. For the molecule `O=C(CCc1ccc(O)cc1)c1c(O)cc(O)cc1O[C@@H]1O[C@H](CO)[C@@H](O)[C@H](O)[C@H]1O` [Phloridzin, reference compound], the inhibition at 300 µM on GLUT2 was determined as 14.3 ± 0.84%. On to `O=c1cc(-c2ccc(O)cc2)oc2cc(OC3O[C@H](CO)[C@@H](O)[C@H](O)[C@H]3O)cc(O)c12` (some centres unmarked) [apigenin-7-glucoside], for which the SGLT1 inhibitory activity entry at SGLT1 [2] is recorded as “SGLT1 inhibitors”. `OC[C@H]1O[C@@H](Oc2ccc(O)cc2)[C@H](O)[C@@H](O)[C@@H]1O` [arbutin]: the SGLT1 inhibitory activity entry on SGLT1 [2] is “lack of SGLT1 inhibitory activity”. As for `OC[C@H]1O[C@@H](Oc2cc3c(O)cc(O)cc3[o+]c2-c2ccc(O)c(O)c2)[C@H](O)[C@@H](O)[C@@H]1O` [cyanidin-3-glucoside], the SGLT1 inhibitory activity result on SGLT1 [2] is given as “SGLT1 inhibitors”.

Turning to `C[C@@H]1O[C@@H](OC[C@H]2O[C@@H](Oc3cc4c(O)cc(O)cc4[o+]c3-c3ccc(O)c(O)c3)[C@H](O)[C@@H](O)[C@@H]2O)[C@H](O)[C@H](O)[C@H]1O` [cyanidin-3-rutinoside], the SGLT1 inhibitory activity result at SGLT1 [2] is listed as “absence of SGLT1 inhibitory activity”. As to `O=c1c(-c2ccc(O)cc2)coc2cc(O[C@@H]3O[C@H](CO)[C@@H](O)[C@H](O)[C@H]3O)ccc12` [daidzein-7-glucoside], the SGLT1 inhibitory activity result on SGLT1 [2] is given as “SGLT1 inhibitors”. Regarding `O=c1c(-c2ccc(O)cc2)coc2c([C@@H]3O[C@H](CO)[C@@H](O)[C@H](O)[C@H]3O)c(O)ccc12` [daidzein-8-C-glucoside], on SGLT1 [2], the SGLT1 inhibitory activity entry is “SGLT1 inhibitors”. For `OC[C@H]1O[C@@H](Oc2cc3c(O)cc(O)cc3[o+]c2-c2cc(O)c(O)c(O)c2)[C@H](O)[C@@H](O)[C@@H]1O` [delphinidin-3-glucoside], the SGLT1 inhibitory activity entry at SGLT1 [2] is given as “SGLT1 inhibitors”. With `O=C1CC(c2ccc(O)c(O)c2)Oc2cc(O[C@@H]3O[C@H](CO)[C@@H](O)[C@H](O)[C@H]3O)cc(O)c21` (some centres unmarked) [eriodictiol-7-glucoside], the SGLT1 inhibitory activity result at SGLT1 [2] was “SGLT1 inhibitors”. `O=c1c(O)c(-c2ccc(O)cc2)oc2cc(O[C@@H]3O[C@H](CO)[C@@H](O)[C@H](O)[C@H]3O)cc(O)c12` [kaempferol-7-glucoside]: the SGLT1 inhibitory activity entry at SGLT1 [2] is “SGLT1 inhibitors”.

For `COc1cc(-c2[o+]c3cc(O)cc(O)c3cc2O[C@@H]2O[C@H](CO)[C@H](O)[C@H](O)[C@H]2O)cc(OC)c1O` [malvidin-3-O-galactoside], at SGLT1 [2], the SGLT1 inhibitory activity result is on record as “absence of SGLT1 inhibitory activity”. For the molecule `COc1cc(-c2[o+]c3cc(O)cc(O)c3cc2O[C@@H]2O[C@H](CO)[C@@H](O)[C@H](O)[C@H]2O)cc(OC)c1O` [malvidin-3-O-glucoside], at SGLT1 [2], the SGLT1 inhibitory activity result is “SGLT1 inhibitors”. As to `OC[C@H]1O[C@@H](Oc2cc3c(O)cc(O)cc3[o+]c2-c2ccc(O)cc2)[C@H](O)[C@@H](O)[C@@H]1O` [pelargonidin-3-glucoside], the SGLT1 inhibitory activity result on SGLT1 [2] is “SGLT1 inhibitors”. In the case of `O=c1c(O[C@@H]2O[C@H](CO)[C@@H](O)[C@H](O)[C@H]2O)c(-c2ccc(O[C@@H]3O[C@H](CO)[C@@H](O)[C@H](O)[C@H]3O)c(O)c2)oc2cc(O)cc(O)c12` [quercetin-3,4′-diglucoside], the SGLT1 inhibitory activity result at SGLT1 [2] is “destroys this inhibitory action”. In the case of `O=c1c(O[C@@H]2O[C@H](CO)[C@@H](O)[C@H](O)[C@H]2O)c(-c2ccc(O)c(O)c2)oc2cc(O)cc(O)c12` [quercetin-3-glucoside], the SGLT1 inhibitory activity entry at SGLT1 [2] is “SGLT1 inhibitors”. `O=c1c(O)c(-c2ccc(O[C@@H]3O[C@H](CO)[C@@H](O)[C@H](O)[C@H]3O)c(O)c2)oc2cc(O)cc(O)c12` [quercetin-4-glucoside]: the SGLT1 inhibitory activity result at SGLT1 [2] is “SGLT1 inhibitors”.
